Results: patent US9504669B2, “Spliceostatin analogs and methods for their preparation” (PFIZER INC., priority 2012, dated 2016)

Key:
Assay type in all cases: cell-based
[1] = system: BT474 (breast cancer) cells; test: In vitro cell assay (MTS cell viability), BT474; settings: Homo sapiens, BT-474; free compounds (natural products and synthetic analogs); cell viability 96 hours after treatment
In short: (§1)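 Cells seeded 24 h, then treated with antibody-drug conjugates or free drug, 3-fold serial dilutions at 10 concentrations in duplicate. Viability by MTS at 96 h as percent of untreated control; IC50 from four-parameter logistic fit.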

[2] = system: N87 (gastric cancer) cells; test: In vitro cell assay (MTS cell viability), N87; settings: 96 h, free compounds (natural products and synthetic analogs); cell viability 96 hours after treatment
In short: as §1

[3] = system: MDA-MB-468 cells (target non-expressing); test: In vitro cell assay (MTS cell viability), MDA-MB-468; settings: Homo sapiens, MDA-MB-468, 96 h, read-out: MDA-MB-468 IC50 (nM)
Experimental: Target expressing (BT474 (breast cancer), N87 (gastric cancer), HCC1954 (breast cancer), MDA-MB-361-DYT2 (breast cancer)) or non-expressing (MDA-MB-468) cells were seeded in 96-well cell culture plates for 24 hours before treatment. Cells were treated with 3-fold serially diluted antibody-drug conjugates or free compounds (i.e., no antibody conjugated to the drug) in duplicate at 10 concentrations. Cell viability was determined by CellTiter 96® AQueous One Solution Cell Proliferation MTS Assay (Promega, Madison Wis.) 96 hours after treatment. Relative cell viability was determined as percentage of untreated control. IC50 values were calculated using a four parameter logistic model #203 with XLfit v4.2 (IDBS, Guildford, Surry, UK). The potency ranged upward from 0.0002 nm. Similar procedures and techniques were employed.

[4] = system: MDA-MB-361-DYT2 (breast cancer) cells; test: In vitro cell assay (MTS cell viability), MDA-MB-361-DYT2; settings: 96 h, free compounds (natural products and synthetic analogs); cell viability 96 hours after treatment
In short: as §1

CC(/C=C/[C@H]1O[C@H](CC(=O)O)C[C@@]2(CO2)[C@@H]1O)=C\C[C@@H]1O[C@H](C)[C@H](NC(=O)/C=C\[C@H](C)O)C[C@@H]1C [#B4, [(3R,5S,7R,8R)-8-hydroxy-7-{(1E,3E)-5-[(2S,3S,5R,6R)-5-{[(2Z,4S)-4-hydroxypent-2-enoyl]amino}-3,6-dimethyltetrahydro-2H-pyran-2-yl]-3-methylpenta-1,3-dien-1-yl}-1,6-dioxaspiro[2.5]oct-5-yl]acetic acid]
IC50 [1]: > 100 nM
IC50 [2]: > 100 nM
IC50 [3]: > 100 nM
IC50 [4]: > 100 nM

CC(=O)O[C@@H](C)/C=C\C(=O)N[C@@H]1C[C@H](C)[C@H](C/C=C(C)/C=C/[C@H]2O[C@H](CC(=O)NN)C[C@@]3(CO3)[C@@H]2O)O[C@@H]1C [#B6, (2S,3Z)-5-{[(2R,3R,5S,6S)-6-{(2E,4E)-5-[(3R,4R,5R,7S)-7-(2-hydrazinyl-2-oxoethyl)-4-hydroxy-1,6-dioxaspiro[2.5]oct-5-yl]-3-methylpenta-2,4-dien-1-yl}-2,5-dimethyltetrahydro-2H-pyran-3-yl]amino}-5-oxopent-3-en-2-yl acetate]
IC50 [1]: 16.5 nM
IC50 [2]: 5.66 nM
IC50 [3]: 7.97 nM
IC50 [4]: 25.4 nM

CC(=O)O[C@@H](C)/C=C\C(=O)N[C@@H]1C[C@H](C)[C@H](C/C=C(C)/C=C/[C@@H]2C[C@]3(CO3)C[C@@H](CC(N)=O)O2)O[C@@H]1C [#B15, (2S,3Z)-5-{[(2R,3R,5S,6S)-6-{(2E,4E)-5-[(3S,5S,7S)-7-(2-amino-2-oxoethyl)-1,6-dioxaspiro[2.5]oct-5-yl]-3-methylpenta-2,4-dien-1-yl}-2,5-dimethyltetrahydro-2H-pyran-3-yl]amino}-5-oxopent-3-en-2-yl acetate]
IC50 [1]: 0.522 nM
IC50 [2]: 0.203 nM
IC50 [3]: 0.363 nM
IC50 [4]: 0.537 nM

CC(/C=C/[C@@H]1C[C@]2(CO2)C[C@@H](CC(=O)O)O1)=C\C[C@@H]1O[C@H](C)[C@H](NC(=O)/C=C\[C@H](C)O)C[C@@H]1C [#B16, [(3S,5S,7S)-7-{(1E,3E)-5-[(2S,3S,5R,6R)-5-{[(2Z,4S)-4-hydroxypent-2-enoyl]amino}-3,6-dimethyltetrahydro-2H-pyran-2-yl]-3-methylpenta-1,3-dien-1-yl}-1,6-dioxaspiro[2.5]oct-5-yl]acetic acid]
IC50 [1]: 76.1 nM
IC50 [2]: 16.8 nM
IC50 [3]: 36.8 nM
IC50 [4]: > 100 nM

CCCNC(=O)C[C@@H]1C[C@@]2(CO2)[C@H](O)[C@@H](/C=C/C(C)=C/C[C@@H]2O[C@H](C)[C@H](NC(=O)/C=C\[C@H](C)OC(C)=O)C[C@@H]2C)O1 [#B63, (2S,3Z)-5-({(2R,3R,5S,6S)-6-[(2E,4E)-5-{(3R,4R,5R,7S)-4-hydroxy-7-[2-oxo-2-(propylamino)ethyl]-1,6-dioxaspiro[2.5]oct-5-yl}-3-methylpenta-2,4-dien-1-yl]-2,5-dimethyltetrahydro-2H-pyran-3-yl}amino)-5-oxopent-3-en-2-yl acetate]
IC50 [1]: 0.651 nM
IC50 [2]: 1.1 nM
IC50 [3]: 0.348 nM
IC50 [4]: 0.293 nM

CCCNC(=O)C[C@@H]1C[C@@]2(CO2)[C@H](O)[C@@H](/C=C/C(C)=C/C[C@@H]2O[C@H](C)[C@H](NC(=O)/C=C\[C@H](C)OC(=O)N3CCCCC3)C[C@@H]2C)O1 [#B66, (2S,3Z)-5-({(2R,3R,5S,6S)-6-[(2E,4E)-5-{(3R,4R,5R,7S)-4-hydroxy-7-[2-oxo-2-(propylamino)ethyl]-1,6-dioxaspiro[2.5]oct-5-yl}-3-methylpenta-2,4-dien-1-yl]-2,5-dimethyltetrahydro-2H-pyran-3-yl}amino)-5-oxopent-3-en-2-yl piperidine-1-carboxylate]
IC50 [1]: 0.18 nM
IC50 [2]: 1.58 nM
IC50 [3]: 0.27 nM

CC(=O)O[C@@H](C)/C=C\C(=O)N[C@@H]1C[C@H](C)[C@H](C/C=C(C)/C=C/[C@H]2O[C@H](CC(=O)N[C@H]3C[C@H](N)C3)C[C@@]3(CO3)[C@@H]2O)O[C@@H]1C [#B73, (2S,3Z)-5-{[(2R,3R,5S,6S)-6-{(2E,4E)-5-[(3R,4R,5R,7S)-7-{2-[(trans-3-aminocyclobutyl)amino]-2-oxoethyl}-4-hydroxy-1,6-dioxaspiro[2.5]oct-5-yl]-3-methylpenta-2,4-dien-1-yl}-2,5-dimethyltetrahydro-2H-pyran-3-yl]amino}-5-oxopent-3-en-2-yl acetate]
IC50 [1]: 296 nM
IC50 [2]: 174 nM
IC50 [3]: 276 nM
IC50 [4]: 443 nM

CC(=O)O[C@@H](C)/C=C\C(=O)N[C@@H]1C[C@H](C)[C@H](C/C=C(C)/C=C/[C@H]2O[C@H](CC(=O)N[C@H]3CC[C@H](N)CC3)C[C@@]3(CO3)[C@@H]2O)O[C@@H]1C [#B76, (2S,3Z)-5-{[(2R,3R,5S,6S)-6-{(2E,4E)-5-[(3R,4R,5R,7S)-7-{2-[(trans-4-aminocyclohexyl)amino]-2-oxoethyl}-4-hydroxy-1,6-dioxaspiro[2.5]oct-5-yl]-3-methylpenta-2,4-dien-1-yl}-2,5-dimethyltetrahydro-2H-pyran-3-yl]amino}-5-oxopent-3-en-2-yl acetate]
IC50 [1]: 341 nM
IC50 [2]: 331 nM
IC50 [3]: 272 nM
IC50 [4]: 885 nM

CCCNC(=O)C(C)(C)NC(=O)C[C@@H]1C[C@@]2(CO2)[C@H](O)[C@@H](/C=C/C(C)=C/C[C@@H]2O[C@H](C)[C@H](NC(=O)/C=C\[C@H](C)OC(C)=O)C[C@@H]2C)O1 [#B81, (2S,3Z)-5-{[(2R,3R,5S,6S)-6-{(2E,4E)-5-[(3R,4R,5R,7S)-4-hydroxy-7-(2-{[2-methyl-1-oxo-1-(propylamino)propan-2-yl]amino}-2-oxoethyl)-1,6-dioxaspiro[2.5]oct-5-yl]-3-methylpenta-2,4-dien-1-yl}-2,5-dimethyltetrahydro-2H-pyran-3-yl]amino}-5-oxopent-3-en-2-yl acetate]
IC50 [1]: > 100 nM
IC50 [2]: 70.7 nM
IC50 [3]: > 100 nM
IC50 [4]: > 100 nM

COC(=O)C[C@@H]1C[C@@]2(CO2)C[C@@H](/C=C/C(C)=C/C[C@@H]2O[C@H](C)[C@H](NC(=O)/C=C\[C@H](C)O)C[C@@H]2C)O1 [#B148, methyl [(3S,5S,7S)-7-{(1E,3E)-5-[(2S,3S,5R,6R)-5-{[(2Z,4S)-4-hydroxypent-2-enoyl]amino}-3,6-dimethyltetrahydro-2H-pyran-2-yl]-3-methylpenta-1,3-dien-1-yl}-1,6-dioxaspiro[2.5]oct-5-yl]acetate]
IC50 [1]: 40.8 nM
IC50 [2]: 47.4 nM
IC50 [3]: 64.4 nM
IC50 [4]: > 100 nM

CC(=O)O[C@@H](C)/C=C\C(=O)N[C@@H]1C[C@H](C)[C@H](C/C=C(C)/C=C/[C@H]2O[C@H](CC(=O)O)C[C@@](O)(CCl)[C@@H]2O)O[C@@H]1C [#NP5, (5R)-5-{(1E,3E)-5-[(2S,3S,5R,6R)-5-{[(2Z,4S)-4-(acetyloxy)pent-2-enoyl]amino}-3,6-dimethyltetrahydro-2H-pyran-2-yl]-3-methylpenta-1,3-dien-1-yl}-1,5-anhydro-1-(carboxymethyl)-3-C-(chloromethyl)-2-deoxypentitol]
IC50 [1]: > 100 nM
IC50 [2]: > 100 nM
IC50 [3]: > 100 nM

CC(=O)O[C@@H](C)/C=C\C(=O)N[C@@H]1C[C@H](C)[C@H](C/C=C(C)/C=C/[C@H]2OC(C)(O)C(O)C(O)(CO)C2O)O[C@@H]1C (stereo partly drawn) [#NP6, (6R)-6-{(1E,3E)-5-[(2S,3S,5R,6R)-5-{[(2Z,4S)-4-(acetyloxy)pent-2-enoyl]amino}-3,6-dimethyltetrahydro-2H-pyran-2-yl]-3-methylpenta-1,3-dien-1-yl}-1-deoxy-4-C-(hydroxymethyl)hex-2-ulopyranose]
IC50 [1]: > 100 nM
IC50 [2]: > 100 nM
IC50 [3]: > 100 nM

CC(=O)OCC1(O)CC(/C=C/C(C)=C/C[C@@H]2O[C@H](C)[C@H](NC(=O)/C=C\[C@H](C)OC(C)=O)C[C@@H]2C)OC(CC(=O)O)C1 (stereo partly drawn) [#NP7, (4-[(acetyloxy)methyl]-6-{(1E,3E)-5-[(2S,3S,5R,6R)-5-{[(2Z,4S)-4-(acetyloxy)pent-2-enoyl]amino}-3,6-dimethyltetrahydro-2H-pyran-2-yl]-3-methylpenta-1,3-dien-1-yl}-4-hydroxytetrahydro-2H-pyran-2-yl)acetic acid]
IC50 [1]: > 100 nM
IC50 [2]: > 100 nM
IC50 [3]: > 100 nM

CC(=O)O[C@@H](C)/C=C\C(=O)N[C@@H]1C[C@H](C)[C@H](C/C=C(C)/C=C/C2CC(O)(CCl)CC(CC(=O)O)O2)O[C@@H]1C (stereo partly drawn) [#NP8, [6-{(1E,3E)-5-[(2S,3S,5R,6R)-5-{[(2Z,4S)-4-(acetyloxy)pent-2-enoyl]amino}-3,6-dimethyltetrahydro-2H-pyran-2-yl]-3-methylpenta-1,3-dien-1-yl}-4-(chloromethyl)-4-hydroxytetrahydro-2H-pyran-2-yl]acetic acid]
IC50 [1]: 1.94 nM
IC50 [2]: 0.643 nM
IC50 [3]: 1.35 nM

CC(=O)OCC1(O)C(O)C(/C=C/C(C)=C/C[C@@H]2O[C@H](C)[C@H](NC(=O)/C=C\[C@H](C)OC(C)=O)C[C@@H]2C)OC(C)(O)C1O (stereo partly drawn) [#NP9, 4-C-[(acetyloxy)methyl]-6-{(1E,3E)-5-[(2S,3S,5R,6R)-5-{[(2Z,4S)-4-(acetyloxy)pent-2-enoyl]amino}-3,6-dimethyltetrahydro-2H-pyran-2-yl]-3-methylpenta-1,3-dien-1-yl}-1-deoxyhex-2-ulopyranose]
IC50 [1]: 65.8 nM
IC50 [2]: 74.3 nM
IC50 [3]: 59.2 nM
